Source: PubChem BioAssay AID1399 (The Scripps Research Institute Molecular Screening Center, 2008)
The source made the active and inactive calls. The limit is not given here; nearly all actives have IC50 up to about 8.9 µM.

Biological target: Signal transducer and activator of transcription 3 (Homo sapiens) (UniProt P40763)
Test: blockers of STAT3 signaling, concentration series – cell-based, dose response (AID 1399)
Details: human cell STAT3 reporter inhibition

Question: How did the IC50 turn out when O=C(NC1CC1)c1cc2c(s1)-c1ccccc1OC2 was run?
Answer: The IC50 was 3.83 µM.

Question: For COc1cccc(-c2cc(C(=O)Nc3cccc(O)c3)no2)c1, which IC50 is on record?
Answer: The IC50 was 4.99 µM.

Question: Which IC50 does the source give for COc1ccccc1OCC(=O)c1[nH]c(C)c(C(C)=O)c1C here?
Answer: Its IC50 is 5.33 µM.

Question: With Cc1ccc(S(=O)(=O)N(C)c2ccc(C(=O)N3CCN(Cc4ccc5c(c4)OCO5)CC3)cc2)cc1 as the compound, how does the IC50 read?
Answer: Its IC50 is 6.17 µM.

Question: How did the IC50 turn out when COc1ccc2cc(-c3cc(C(=O)OCC(=O)Nc4c(C)n(C)n(-c5ccccc5)c4=O)c4ccccc4n3)ccc2c1 was run?
Answer: Its IC50 is 4.63 µM.

Question: For CC1CCCCC1NS(=O)(=O)c1ccc(S(=O)(=O)NCc2ccncc2)cc1 (stereo not drawn), which IC50 is on record?
Answer: The IC50 was 3.28 µM.

Question: How did the IC50 turn out when CNc1ccccc1C(C)(C)c1cc(-c2ccc(F)cc2)no1 was run?
Answer: The IC50 was 5.41 µM.

Question: Which IC50 does the source give for Cc1ccc(-n2ncc3c(SCc4cccnc4)ncnc32)c(C)c1 here?
Answer: Its IC50 is 5.76 µM.

Question: How did the IC50 turn out when O=C(Nc1cccc(Cl)c1)Nc1ccnc(-c2cccnc2)n1 was run?
Answer: Its IC50 is 3.2 µM.

Question: Which IC50 does the source give for CCOC(=O)c1oc2ccc(S(=O)(=O)Nc3ccc4c(c3)n(C)c(=O)n4C)cc2c1C here?
Answer: Its IC50 is 5.04 µM.

Question: With Clc1ccc(OCc2cc(-c3ccccc3)no2)c(Cl)c1 as the compound, how does the IC50 read?
Answer: The IC50 was 8.02 µM.

Question: O=C(COc1ccc2ccccc2c1)Nc1ccncc1 was tested. Which IC50 did it give?
Answer: The IC50 was 6.11 µM.

Question: For CCOC(=O)c1sc2nc(CC(=O)OC)nc(NCc3ccc(Cl)cc3)c2c1C, which IC50 is on record?
Answer: Its IC50 is 7.66 µM.

Question: Which IC50 does the source give for Nc1cc(-c2ccc(Br)cc2)nn1Cc1ccccc1 here?
Answer: Its IC50 is 4.05 µM.

Question: Cc1cc(OCC(=O)Nc2ccncc2)cc(C)c1Br was tested. Which IC50 did it give?
Answer: Its IC50 is 3.18 µM.

Question: For Cc1ccc(N2C(=O)c3ccccc3C2O)nc1 (stereo not drawn), which IC50 is on record?
Answer: The IC50 was 5.98 µM.

Question: With Clc1ccc(CSc2nnc(Cn3cnc4ccccc43)o2)cc1 as the compound, how does the IC50 read?
Answer: The IC50 was 5.02 µM.

Question: Cc1cc(C)n(Cc2ccc(NC(=O)c3ccc(COc4ccccc4Br)cc3)cc2)n1 was tested. Which IC50 did it give?
Answer: The IC50 was 7.64 µM.

Question: Which IC50 does the source give for O=C(Nc1ccncc1)c1ccc(-c2ccccc2)cc1 here?
Answer: The IC50 was 2.16 µM.

Question: How did the IC50 turn out when C[C@H]1O[C@@H](O[C@H]2[C@@H](O)C[C@H](O[C@H]3[C@@H](O)C[C@H](O[C@H]4CC[C@@]5(C)[C@H](CC[C@@H]6[C@@H]5CC[C@]5(C)[C@@H](C7=CC(=O)OC7)CC[C@]65O)C4)O[C@@H]3C)O[C@@H]2C)C[C@H](O)[C@@H]1O was run?
Answer: The IC50 was 0.7 µM.

Question: For Nc1cc(-c2ccccc2)nn1Cc1ccc(Cl)cc1, which IC50 is on record?
Answer: The IC50 was 6.76 µM.

Question: Which IC50 does the source give for O=C(Nc1nccs1)c1ccc(S(=O)(=O)NCC2CCCCC2)cc1 here?
Answer: Its IC50 is 3.03 µM.

Question: With COc1ccc(CC(=O)Nc2cccc(-c3nnc(-c4cccc(C)c4)o3)c2)cc1OC as the compound, how does the IC50 read?
Answer: The IC50 was 3.32 µM.

Question: With CC(=O)c1cn(CC(=O)Nc2ccccc2C)c2ccccc12 as the compound, how does the IC50 read?
Answer: The IC50 was 5.07 µM.

Question: Which IC50 does the source give for Cc1nc(CNS(=O)(=O)c2ccc(Oc3ccccc3)cc2)cs1 here?
Answer: The IC50 was 5.54 µM.

Question: Which IC50 does the source give for Cc1cccc(-c2nc3cc(NC(=O)C4CCCO4)ccc3o2)c1 (stereo not drawn) here?
Answer: The IC50 was 6.32 µM.

Question: With O=C(Nc1ccn(Cc2ccccc2F)n1)c1ccc(COc2ccc(Br)cc2)cc1 as the compound, how does the IC50 read?
Answer: The IC50 was 2.9 µM.

Question: Which IC50 does the source give for O=C1C2C3c4ccccc4C(c4ccccc43)C2c2nc3ccccc3n21 (stereo not drawn) here?
Answer: Its IC50 is 3.23 µM.

Question: With CCOc1cc(C(=S)N2CCOCC2)ccc1OS(=O)(=O)c1ccc(NC(C)=O)cc1 as the compound, how does the IC50 read?
Answer: Its IC50 is 5.23 µM.

Question: CSc1ccc(NC(=O)N2CCN(c3nc4ccccc4s3)CC2)cc1 was tested. Which IC50 did it give?
Answer: The IC50 was 5.96 µM.

Question: Which IC50 does the source give for Cn1c(=O)oc2cc(S(=O)(=O)N3CCCC(C(=O)N4CC=C(c5ccccc5)CC4)C3)ccc21 (stereo not drawn) here?
Answer: The IC50 was 5.41 µM.

Question: With COC(=O)c1nn(-c2ccc3c(c2)CCN3C(C)=O)cc1O as the compound, how does the IC50 read?
Answer: The IC50 was 1.29 µM.

Question: Which IC50 does the source give for O=C1c2ccc(Br)cc2C(=O)N1c1ccc(Cc2ccncc2)cc1 here?
Answer: Its IC50 is 5.65 µM.

Question: Cc1ccc(-n2nnnc2SCn2nnc3ccccc3c2=O)c(C)c1 was tested. Which IC50 did it give?
Answer: The IC50 was 5.32 µM.

Question: With COc1cc(OC)cc(C(=O)Nc2nnc(NC(=S)Nc3ccccc3)s2)c1 as the compound, how does the IC50 read?
Answer: Its IC50 is 3.91 µM.

Question: O=C(Nc1ccc(Oc2ccccc2)cc1)C1CCN(c2c3c(nc4ncnn24)CCC3)CC1 was tested. Which IC50 did it give?
Answer: Its IC50 is 6.45 µM.

Question: How did the IC50 turn out when CC(C)Cn1c(N)c(C(=O)CSc2ccccc2)c(=O)n(C)c1=O was run?
Answer: The IC50 was 5.57 µM.

Question: Which IC50 does the source give for CCCOc1ccc(/C=N/NC(=S)Nc2ccccc2[N+](=O)[O-])c(O)c1 here?
Answer: The IC50 was 1.05 µM.

Question: With CCCCOc1ccc(C(=O)Nc2ccncc2)cc1 as the compound, how does the IC50 read?
Answer: Its IC50 is 2.11 µM.

Question: With O=C(Nc1ccc(N2CCN(C(=O)c3ccco3)CC2)c(Cl)c1)c1cc2ccccc2o1 as the compound, how does the IC50 read?
Answer: Its IC50 is 8.95 µM.

Question: With COc1ccc(/C=N/NC(=S)Nc2ccccc2[N+](=O)[O-])cc1O as the compound, how does the IC50 read?
Answer: The IC50 was 1.74 µM.

Question: For CN1/C(=C\C(=O)C[n+]2ccc(C(=O)c3ccccc3)cc2)C(C)(C)c2ccccc21, which IC50 is on record?
Answer: Its IC50 is 5.22 µM.

Question: With Cc1ccccc1OCCCCn1cnc2ccccc21 as the compound, how does the IC50 read?
Answer: The IC50 was 5.73 µM.

Question: Which IC50 does the source give for Clc1ccc2ncc(-c3nnnn3-c3ccccc3)c(-c3ccccc3)c2c1 here?
Answer: Its IC50 is 8.01 µM.

Question: With O=C(C1CCN(c2nc3ccc(Br)cc3s2)CC1)N1CCC2(CC1)OCCO2 as the compound, how does the IC50 read?
Answer: Its IC50 is 2.79 µM.

Question: How did the IC50 turn out when NC(=O)C1CCN(c2ccc(S(=O)(=O)N3CCC(Cc4ccccc4)CC3)cn2)CC1 was run?
Answer: Its IC50 is 4.93 µM.

Question: Which IC50 does the source give for COc1cc(OC)cc(C(=O)Nc2ccc(-c3nc4ccccc4o3)cc2)c1 here?
Answer: The IC50 was “inactive”.

Question: With CC[n+]1ccccc1/C=C/c1ccc(N(C)C)cc1 as the compound, how does the IC50 read?
Answer: The IC50 was 2.94 µM.

Question: CCOC(=O)C1=C(Cc2ccc(C)cc2)C(=O)c2ccccc2C1=O was tested. Which IC50 did it give?
Answer: Its IC50 is 7.04 µM.

Question: With Cc1ccc2c(C)nc(Nc3nc(CSc4nc5ccccc5[nH]4)cc(=O)[nH]3)nc2c1 as the compound, how does the IC50 read?
Answer: Its IC50 is 5.32 µM.

Question: Cc1ccc(Cl)cc1N1CCN(C(=O)COc2ccc(S(=O)(=O)NC(C)C)cc2)CC1 was tested. Which IC50 did it give?
Answer: The IC50 was 7.8 µM.

Question: O=C(Oc1cccc(Nc2ncnc3ccccc23)c1)c1ccccc1Cl was tested. Which IC50 did it give?
Answer: The IC50 was 4.44 µM.

Question: Which IC50 does the source give for O=C(Nc1cccc(O)c1)c1noc2c1CCc1ccccc1-2 here?
Answer: Its IC50 is 3.55 µM.

Question: How did the IC50 turn out when O=C(Nc1ccn(Cc2ccccc2F)n1)c1ccc(COc2ccccc2Cl)cc1 was run?
Answer: The IC50 was 5.12 µM.

Question: How did the IC50 turn out when Cc1nc2ccccc2cc1OCc1ccc(F)cc1 was run?
Answer: Its IC50 is 3.47 µM.

Question: With C[C@H]1O[C@@H](O[C@H]2[C@@H](O)C[C@H](O[C@H]3[C@@H](O)C[C@H](O[C@H]4CC[C@@]5(C)[C@H](CC[C@@H]6[C@@H]5C[C@@H](O)[C@]5(C)[C@@H](C7=CC(=O)OC7)CC[C@]65O)C4)O[C@@H]3C)O[C@@H]2C)C[C@H](O)[C@@H]1O as the compound, how does the IC50 read?
Answer: Its IC50 is 1.86 µM.

Question: With CC1CCC2C(=O)N(c3ccccc3OC(=O)c3ccccc3)C(=O)C2C1 (stereo not drawn) as the compound, how does the IC50 read?
Answer: The IC50 was 9.22 µM.

Question: Which IC50 does the source give for COc1ccc2nc3c(cc2c1)c(NC(=O)c1cccs1)nn3CC(C)C here?
Answer: The IC50 was 3.75 µM.

Question: Which IC50 does the source give for CCOC(=O)c1ccc(NC(=O)c2ccc(CN3CCOCC3)cc2)cc1 here?
Answer: The IC50 was 2.9 µM.

Question: How did the IC50 turn out when Cc1nn2cc(-c3ncc(C(F)(F)F)cc3Cl)cnc2c1Br was run?
Answer: Its IC50 is “inactive”.

Question: Which IC50 does the source give for COc1ccc(-c2nn(C)c(=O)c3ccccc23)cc1NC(=O)COc1ccc(C)cc1 here?
Answer: Its IC50 is 5.06 µM.

Question: For O=C(CSc1ccc2ccccc2c1)Nc1ccncc1, which IC50 is on record?
Answer: Its IC50 is 7.66 µM.

Question: How did the IC50 turn out when Cn1c(CN2CCCCC2)nc2cc(NC(=O)c3cccc(Br)c3)ccc21 was run?
Answer: The IC50 was 4.55 µM.

Question: CCCOc1ccc(CSc2nc3ccccc3[nH]2)cc1 was tested. Which IC50 did it give?
Answer: The IC50 was 6.53 µM.

Question: For Oc1ccc(-c2n[nH]c(=S)n2-c2ccc3c(c2)OCCO3)c(O)c1, which IC50 is on record?
Answer: The IC50 was 5.37 µM.

Question: Which IC50 does the source give for Nc1c(C(=O)NC2CCCCC2)nsc1C(=O)OCC(=O)NC1CCCCC1 here?
Answer: The IC50 was 4.22 µM.

Question: How did the IC50 turn out when NNC(=O)c1cccc(COc2ccccc2Br)c1 was run?
Answer: The IC50 was 3.25 µM.

Question: With O=C(Nc1nc(-c2ccc(Cl)s2)cs1)c1ccncc1 as the compound, how does the IC50 read?
Answer: The IC50 was 4.01 µM.

Question: For O=C(Nc1cccc(O)c1)C(=O)Nc1ccccn1, which IC50 is on record?
Answer: Its IC50 is 3.7 µM.

Question: For CCOc1ncccc1C(=O)OCC(=O)Nc1ccc(-c2nc3ccc(C)cc3s2)cc1, which IC50 is on record?
Answer: The IC50 was 3.25 µM.

Question: With Cc1cccc(N2CCN(C(=O)CSCc3c(C)noc3C)CC2)c1C as the compound, how does the IC50 read?
Answer: The IC50 was 4.55 µM.

Question: Which IC50 does the source give for Cc1nc2ccccc2cc1OCc1ccccc1 here?
Answer: Its IC50 is 4.76 µM.

Question: How did the IC50 turn out when COc1ccc(C(=O)Nc2ccc3oc(Cc4ccc(Cl)cc4)nc3c2)cc1OC was run?
Answer: The IC50 was 6.74 µM.

Question: How did the IC50 turn out when CCc1c(C)c2ccc(OCC(=O)OC(C)C)c(C)c2oc1=O was run?
Answer: Its IC50 is 6.19 µM.

Question: With CC(=O)Nc1ccc(-c2csc(Nc3ccc(Cl)cn3)n2)cc1 as the compound, how does the IC50 read?
Answer: The IC50 was 6.34 µM.

Question: c1ccc(CC2CCN(c3ncnc4sccc34)CC2)cc1 was tested. Which IC50 did it give?
Answer: Its IC50 is 1.61 µM.

Question: With COc1ccc(CC(=O)Nc2cccc(SC)c2)cc1OC as the compound, how does the IC50 read?
Answer: Its IC50 is 6.37 µM.

Question: With CCCCCCCc1ccc(-c2ccc(O)cc2)nc1 as the compound, how does the IC50 read?
Answer: The IC50 was 3.26 µM.
